Results taken from US11478474B2, “2-(3′-(hydroxymethyl)-1-methyl-5-((5-(2-methyl-4-(oxetan-3-yl)piperazin-1-yl)pyridin-2-yl)amino)-6-oxo-1,6-dihydro-[3,4′-bipyridin]-2′-yl)-7,7-dimethyl-7,8-dihydro-2H-cyclopenta[4,5]pyrrolo[1,2-a]pyrazin-1(6H)-one as a BTK inhibitor” (HUTCHISON MEDIPHARMA LIMITED, priority 2020, dated 2022).

How the values were obtained:
[1] = In vivo efficacy of the inhibitory effect on BTK target (anti-IgD antibody-induced B cell activation in mice whole blood after in vivo administration); settings: female, C57BL/6, mouse; 20 mg/kg single oral gavage, 16 h, mice plasma; read-out: Drug concentration in plasma
Description: (§1) Objects: B cells in mice whole blood were induced and activated by the anti-IgD antibody, and the inhibitory effect of the compound of the present invention on B cell activation in vivo was studied, so as to determine the inhibitory effect of the compound of the present invention on the BTK target in vivo.
(§2) Methods: C57BL/6 mice (female, 18-20 g, purchased from Shanghai Lingchang Biotechnology Co., Ltd.) were grouped according to Table 2.
(§3) The animals of each group were administered, then were placed in CO2 for anesthesia at designated time points, blood samples were taken from […] via retro-orbital bleeding, and heparin was used for anticoagulation; 90 μL of whole blood was taken from mice of each group, and added to a 96 well culture plate, and anti-mouse IgD antibody (BIO-RAD, Cat #MCA4693) was added to each well to a final concentration of 0.01 μg/μL (respectively for the each drug-treated group and anti-IgD antibody-inducted vehicle group); in addition, 90 μL of whole blood of mice in the vehicle group was taken and added to the 96-well culture plate, and PBS (phosphate buffer, GIBCO, Cat #C20012500BT) was added to each well to a final concentration of 0.01 μg/μL (namely, the vehicle control group); Each group was mixed well and incubated in a 37° C./5% CO2 incubator for 4 hours. In addition, the blood of mice in the drug-treated group was centrifuged to separate plasma for blood concentration analysis.
(§4) Calculation for B Cell Activation Ratio: B cell activation ratio=percentage of CD69+CD19+double positive B cells/percentage of CD19+single positive B cells
(§5) Calculation for Inhibition Ratio: Inhibition ratio=(percentage of B cell activation ratio in anti-IgD antibody-induced vehicle group-percentage of B cell activation ratio in drug-treated group)/(percentage of B cell activation ratio in anti-IgD antibody-induced vehicle group-percentage of B cell activation ratio in vehicle control group)×100%
(§6) All data are represented by mean±standard error. For the comparison between each drug-treated group and the anti-IgD antibody-induced vehicle group, p value was calculated by Graphpad Prism using one-way ANOVA analysis of variance and Dunnett's test, and for the comparison between each drug-treated group, p value was calculated by using unpaired t test.

[2] = system: B cell activation in mouse whole blood induced by anti-IgD antibodies; experiment: as above
Description: as §1, §2, §3, §4, §5, §6

[3] = target: phosphorylated BTK in Ramos cells (Homo sapiens (Human), UniProt Q06187); experiment: Determination of phosphorylated BTK in Ramos cells (BTK phospho-Y223 HTRF); type: cell-based; settings: anti-human IgM + hydrogen peroxide stimulation
How it was run: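 BTK Y223 phosphorylation measured by HTRF (665/615 nm) in lysates of Ramos cells. Cells were serum-starved 2 h, exposed to compound for 1 h (final 0.00018–3.0 μM, 0.3% DMSO), then stimulated 10 min with 10 μg/mL anti-IgM and 3.3 mM H2O2. IC50 derived from percent inhibition between unstimulated and stimulated controls.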

[4] = Stability test in liver microsomes (rat); type: in vitro ADME
From the text: (§7) Example 5 Stability Test in Liver Microsomes
(§8) Both male CD-1 mouse pooled liver microsomes and male SD rat pooled liver microsomes were purchased from BioreclamationIVT Corporation, USA.
(§9) Phenacetin, glucose-6-phosphate dehydrogenase (G-6-PDH) and nicotinamide adenine dinucleotide phosphate (NADP) were all purchased from Sigma-Aldrich Corporation, USA. Glucose-6-phosphate (G-6-P) was purchased from Shanghai Eybridge Chemical Technology Co., Ltd.
(§10) Ten mM test compound stock solution: a certain amount of test compound was weighed, and dissolved with an appropriate volume of DMSO to prepare a stock solution with a concentration of 10 mM for use.
(§11) Reaction stopping solution: an appropriate amount of internal standard compound phenacetin was dissolved in acetonitrile to prepare a reaction stopping solution with a concentration of 1000 ng/mL for use at room temperature.
(§12) The test compound stock solution was diluted with an organic solvent (usually a mixture of acetonitrile, methanol and water with various ratios, depending on the solubility of the compound, if necessary, 1 N hydrochloric acid or 1 N sodium hydroxide would be added to facilitate solubilization) to the 0.1 mM (the final concentration of the compound in the reaction system was 1 μM) and the concentration percentage of the organic solvents in the incubation system no more than 1% (wherein the percentage of DMSO was required to be no more than 0.1%). An appropriate amount of 100 mM NADP, 500 mM G-6-P and 100 Unit/mL G-6-PDH were mixed and diluted with ultrapure water (the final system contains 1 mM NADP, 5 mM G-6-P and 1 Unit/mL G-6-PDH), pre-incubated in a 37° C. water bath for 10 minutes and then placed on ice for use as a NADPH regeneration solution. 20 mg/mL liver microsomes solution and 200 mM phosphate buffer was mixed, and diluted with ultrapure water to give a liver microsomes solution containing 2.5 mg/mL liver microsomes (the final concentration of the reaction system is 0.5 mg/mL) and 50 mM phosphate buffer. The diluted liver microsomes solution was mixed with 0.1 mM compound solution, a mixture of 100 mM EDTA, 300 mM MgCl2 solution, 200 mM phosphate buffer (the final system was 3 mM MgCl2, 1 mM EDTA and 50 mM phosphate buffer) and water in an appropriate volume was added. Finally, the NADPH regeneration solution was added, then the reaction solution was placed in a 37° C. water bath to start the reaction (the reaction time was 30 minutes), and the reaction was stopped by adding the ice-cold acetonitrile reaction stopping solution containing the internal standard. The 0-minute sample was not incubated in a 37° C. water bath, and its difference from the 30-minute sample further lies in that the ice-cold acetonitrile reaction stopping solution containing the internal standard was added first, and then the NADPH regeneration solution was added. The sample added with the reaction stopping internal standard solution was vortexed and mixed well, and then centrifuged at 4400 rpm for 10 minutes. The supernatant was taken and diluted ten times with 50% methanol for LC-MS/MS analysis.
(§13) LC-MS/MS was used to determine the concentration of the compound in the sample. The percentage of the remaining compound after 30 minutes of incubation comparing with that in the 0-minute sample was calculated using the peak area ratio of the compound to the internal standard as an indicator, to evaluate the metabolic stability of the compound.
(§14) Instrument: API4500, API4000 or LTQ Mass Spectrometer; the liquid phase is UHPLC system (Shimadzu LC-30 AD, model Nexra X2) including liquid delivery unit, column thermostat, detector and autosampler; or Agilent 1200 Binary Pump series HPLC and CTC Autosampler.
(§15) Chromatographic column: Waters XSELECT Hss T3 C18 (2.5 μm, 2.1×50 mm) or […] (5 μm, 2.0×50 mm)
(§16) A: water with 0.1% FA (formic acid) (with or without 0.1% ACN (acetonitrile))
(§17) B: acetonitrile with 0.1% FA (formic acid).

[5] = Stability test in liver microsomes (mouse); type: in vitro ADME; settings: mouse liver microsomes 0.5 mg/mL, compound 1 μM, 37° C.
From the text: as §7, §8, §9, §10, §11, §12, §13, §14, §15, §16, §17

[6] = system: TMD8 subcutaneous xenograft (human diffuse large B-cell lymphoma cells); experiment: In vivo efficacy in TMD8 subcutaneous xenograft model in nude mice
Description: Example 7 Evaluation of In Vivo Efficacy of the Compound of the Present Invention in TMD8 Subcutaneous Xenograft Model
Objects: To investigate the anti-tumor activity of compound 19 in TMD8 subcutaneous xenograft model in nude mice.
Methods: Human diffuse large B-cell lymphoma cells TMD8 (acquired under license from Tokyo Medical and Dental University) were cultured in RPMI1640 medium containing 10% fetal bovine serum. 1×10^7 tumor cells suspended in RPMI1640 medium mixed well with Matrigel (purchased from Corning, USA) at 1:1 were implanted subcutaneously on the right flank of each male Balb/c nude mouse (Shanghai Lingchang Biotechnology Co., Ltd.), pretreated with cyclophosphamide (at a dose of 200 mg/kg, intraperitoneal injection 24 h before cell inoculation). […] All drugs were administered by oral gavage, once a day, and the vehicle control group was administered orally with 0.5% hydroxypropyl methylcellulose solution (pH=3).
Tumor volumes (tumor volume=0.5×long diameter×short diameter^2) and body weights of the mice were measured regularly. The tumor volume change and body weight were statistically analyzed, with p<0.05 considered statistically significant, and p<0.01 as extremely statistically significant.
The anti-tumor activity was evaluated by tumor growth inhibition. Tumor growth inhibition (TGI %)=100%×(1−(TVDt (treatment group)−TVD0 (treatment group))/(TVDt (control group)−TVD0 (control group))) Relative body weight (RBW %)=BWDt/BWD0×100%
wherein, TVD0 represents the tumor volume obtained at first measurement, namely, the tumor volume before drug administration, and TVDt represents the tumor volume on the day of measurement; BWD0 represents the body weight of the animal obtained at first measurement, namely, the body weight of the animal before drug administration; BWDt represents the body weight of the animal on the day of measurement.

[7] = 50 mg/kg oral gavage once a day, Day 21

phosphorylated BTK in Ramos cells, sequence (Q06187 whole entry): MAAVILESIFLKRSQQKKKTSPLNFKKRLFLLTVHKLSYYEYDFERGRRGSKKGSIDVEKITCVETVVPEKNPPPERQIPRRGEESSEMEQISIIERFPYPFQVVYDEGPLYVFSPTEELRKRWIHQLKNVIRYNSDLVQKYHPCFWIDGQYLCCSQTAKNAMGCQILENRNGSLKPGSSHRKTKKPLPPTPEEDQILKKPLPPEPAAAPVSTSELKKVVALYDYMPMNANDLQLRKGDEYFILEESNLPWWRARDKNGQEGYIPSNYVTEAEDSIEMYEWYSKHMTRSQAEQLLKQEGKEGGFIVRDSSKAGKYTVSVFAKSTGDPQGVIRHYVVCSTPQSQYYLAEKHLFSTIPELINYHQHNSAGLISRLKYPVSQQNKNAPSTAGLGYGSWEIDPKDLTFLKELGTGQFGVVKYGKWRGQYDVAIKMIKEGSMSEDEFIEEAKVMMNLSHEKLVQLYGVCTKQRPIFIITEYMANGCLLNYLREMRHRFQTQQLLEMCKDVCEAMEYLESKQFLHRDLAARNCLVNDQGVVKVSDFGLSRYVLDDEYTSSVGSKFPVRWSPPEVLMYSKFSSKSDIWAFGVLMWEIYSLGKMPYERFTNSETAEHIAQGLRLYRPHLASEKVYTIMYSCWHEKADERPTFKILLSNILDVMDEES

For `Cn1cc(-c2ccnc(-n3ccn4c5c(cc4c3=O)CC(C)(C)C5)c2CO)cc(Nc2ccc(N3CCN4CCOCC4C3)cn2)c1=O` (racemic) [Compound 232], the concentration at 16 h [1] was 76.2 ± 41.7 ng/mL, the “Inhibition ratio (%)” value ([2]; 20 mg/kg single oral gavage, 16 h) was 89% and the “B cell activation ratio (the proportion of activated B cells to total B cells)” value ([2]; 20 mg/kg single oral gavage, 16 h, mean ± standard error) was 8.4 ± 1.9^***&. The “inhibition ratio on B cell activation” value ([2]; 20 mg/kg, 16 hours after administration, mice whole blood, anti-IgD antibody) was 89%.
For `Cn1cc(-c2ccnc(-n3ccn4c5c(cc4c3=O)CC(C)(C)C5)c2CO)cc(Nc2ccc(N3CCN(C4COC4)CC3=O)cn2)c1=O` [Compound 34], the IC50 [3] was 10 nM, the “stability in rat & mouse liver microsomes compared with the reference GDC-0853” value ([4]; rat & mouse liver microsomes, 30 minutes) was “better than that of the reference GDC-0853” and the “RLM (percentage of the remaining compound after 30 minutes of incubation)” value ([4]; rat liver microsomes 0.5 mg/mL, compound 1 μM, 37° C.) was roughly 100%. For the same compound, the “MLM (percentage of the remaining compound after 30 minutes of incubation)” value [5] was 89.5%.
In the case of `C=CC(=O)N1CCC[C@@H](n2nc(-c3ccc(Oc4ccccc4)cc3)c3c(N)ncnc32)C1` [Ibrutinib, reference compound], the “Number of animals with CR (Day 21)” value ([6]; 50 mg/kg oral gavage once a day, 8 animals per group) is reported as 1, the “Tumor volume (mm^3) ± SD Day 0” value ([6]; 50 mg/kg oral gavage once a day, Day 0, before drug administration) is reported as 397 ± 42 mm^3 and the “TGI (%)” value [6, 7] is reported as 42.4%. For the same compound, the “Tumor volume (mm^3) ± SD Day 21” value [6, 7] was 2027 ± 991 mm^3, the “RBW (%) (Day 21)” value ([6]; 50 mg/kg oral gavage once a day, relative body weight) was 111.4% and the “Tumor growth inhibition (TGI %)” value ([6]; 50 mg/kg, oral gavage once a day, 21 days after treatment, vs vehicle control) was 42.4%.
